Legend:
C57/BL6N male mice [1] = experiment: Oxygen consumption on odor presentation; assay type: in vivo, mouse; details: filter paper scented with 100 μl (104 mmol) odor, versus saline
Method: An influence of a thiazoline-related compound on the oxygen consumption was analyzed. The oxygen consumption was analyzed using an energy metabolism measurement device for small animals (ARCO-2000; ARCO SYSTEM). About 3-month-old C57/BL6N male mice were each placed in a measuring chamber and, after acclimation for about 2 hr, a thiazoline-related compound (2MT) was presented. The odors were presented by placing filter papers scented with 100 μl (104 mmol) of odor molecules in the measuring chamber. As a control, an experiment in which a filter paper dropped with saline was presented to the mice was also performed. The oxygen consumption was measured every one min. Mean oxygen consumption was calculated as the mean of 10 min before presenting odor and 20 min after presenting odor.

C57/BL6N male mice [2] = experiment: Core body temperature under the odor conditions of Example 14; assay type: in vivo, mouse; details: odor presentation conditions of Example 14
Method: An influence of a thiazoline-related compound and an odor molecule that induces learned fear on the core body temperature was analyzed. A radio-telemetry device for monitoring biological parameters (manufactured by Physiotel) was surgically implanted in the abdomen of male C57/BL6N mice (about 3 months old). The mice were subjected to the following experiment after about 10 days of recovery period. […] The information of body temperature was recorded every 10 sec using Dataquest A.R.T. software (DataScience international). The value of the core body temperature change was calculated as the difference between the mean core body temperature for 10 min when water was presented and the mean core body temperature for 20 min when each odor molecule was presented, and the change in the core body temperature without odor was set to 0. […]
Skin ischemia-reperfusion injury model mouse was generated as follows according to the method of Uchiyama et al. (Uchiyama et al., Sci Rep 5:9072, 2015). […] The condition of the skin on the back, which was pinched between magnets, was recorded by taking photographs every day. Based on the obtained images, the wound area was quantified with image analysis software (Photoshop, Adobe). Furthermore, changes in the core body temperature when the odor was presented under the same conditions as in this Example were measured by the same experimental method as in Example 2.

Interleukin-10 (IL-10) = experiment: Blood IL-10 in LPS sepsis model (ELISA); assay type: in vivo, mouse; details: about 80 mg/kg i.p., 1 hr and 4 hr, versus saline
Method: Lipopolysaccharide (LPS) (0.6 mg/kg) was intraperitoneally administered to male Balb/c mice (about 2-3 months old) to generate a sepsis model. Immediately after the LPS administration, 200 μl (about 80 mg/kg) of a solution prepared by diluting various heterocyclic compounds and isothiocyanate compounds 100 times with saline was intraperitoneally administered. Blood samples were collected 60 min after LPS and compound administration, EDTA plasma was prepared, and the blood level of inflammatory cytokine TNF-a was measured by the ELISA method.
A sepsis model mouse was prepared by the same method as in Example 18. Immediately after the LPS administration, 200 μl (about 80 mg/kg) of a thiazoline-related compound (2MT) solution prepared by diluting 100 times with saline was intraperitoneally administered. Blood samples were collected 1 hr and 4 hr after administration of LPS and thiazoline-related compound (2MT), EDTA plasma was prepared, and the blood levels of inflammatory cytokine Interleukin-1β (IL-1β), and anti-inflammatory cytokine Interleukin-10 (IL-10) were measured by the ELISA method.

[3] = test system: Skin ischemia-reperfusion injury model mouse; experiment: Skin ischemia-reperfusion injury (pressure ulcer) model, wound area; assay type: in vivo; details: odor 100 μl (104 mmol) 30 min before and during 12 hr of pinching the skin between magnets, versus no odor
Method: Skin ischemia-reperfusion injury model mouse was generated as follows according to the method of Uchiyama et al. (Uchiyama et al., Sci Rep 5:9072, 2015). The back hair of C57/BL6N male mice (about 3-month-old) was shaved in the same manner as in Example 1, 2-3 days before the test. On the day of the test, the mice were each placed in a highly sealed cage, and a filter paper scented with 100 μl (104 mmol) of the thiazoline-related compound (2MT) was placed in the breeding cage, and the odor was presented for 30 min. As a control, a filter paper dropped with water was presented for 30 min (no odor). After 30 min, the mouse was taken out from the cage, the dorsal skin was pinched between two circular magnets and the mouse was returned to the highly sealed cage. Furthermore, a filter paper scented with 100 μl (104 mmol) of 2 MT or water was placed in the highly sealed cage, and the mouse was left for 12 hr. […] The condition of the skin on the back, which was pinched between magnets, was recorded by taking photographs every day. Based on the obtained images, the wound area was quantified with image analysis software (Photoshop, Adobe). Furthermore, changes in the core body temperature when the odor was presented under the same conditions as in this Example were measured by the same experimental method as in Example 2.

Male C57/BL6N mice = experiment: Body surface temperature on odor presentation (thermography); assay type: in vivo, mouse; details: filter paper scented with 271 μmol odor, mean of 20 min, versus no odor
Method: An influence of a thiazoline-related compound and an odor molecule that induces learned fear on the body surface temperature was analyzed. Male C57/BL6N mice (about 3 months old) were anesthetized with pentobarbital (50 mg/kg, i.p.) 2-3 days before the test, and the back hair was depilated with depilatory cream. On the day of testing, each mouse was placed in a test cage and, after acclimation for 10 min, a filter paper scented with 271 μmol of a thiazoline-related compound (2-methyl-2-thiazoline; 2MT) or an odor molecule that induces learned fear (anisole) was presented in the test cage, and changes in the body surface temperature on the back were analyzed using a thermography camera (NEC Avio). The value of the body surface temperature change was calculated as the difference between the mean body surface temperature for 10min when water was presented and the mean body surface temperature for 20 min when each odor molecule was presented, and the change in the body surface temperature without odor was set to 0. […]
An influence of various thiazoline-related compounds on the body surface temperature was analyzed by a method similar to that in Example 1. As a control, an influence of an odor molecule that induces learned fear was also analyzed. […]

SMILES: CC1=NCCS1 [2MT, 2-methyl-2-thiazoline]
- oxygen consumption per body weight (C57/BL6N male mice [1]): decreased remarkably
- core body temperature (C57/BL6N male mice [2]): remarkable decrease in the core body temperature
- blood concentration of IL-10 (Interleukin-10 (IL-10)): increased the blood concentration of anti-inflammatory cytokine IL-10
- formation of pressure ulcer (wound area) [3]: formation of pressure ulcer significantly decreased
- changes in the body surface temperature (Male C57/BL6N mice): clear decrease in the body surface temperature

Reference: patent US20240382497A1, “PROPHYLACTIC OR THERAPEUTIC AGENT FOR HYPOXIC INJURY, ISCHAEMIA-REPERFUSION INJURY AND INFLAMMATION, CELL PROTECTION AGENT FOR TRANSPLANTATION, AND BIO-PRESERVATION AGENT” (priority 2018, published 2024)
